Patent US4204065A, “Soft quaternary surface active agents and method of using same” (Interx Research Corporation, priority 1978, dated 1980)
Entries after “also recorded” stand apart in the source; their conditions may differ. Like-named read-outs stand apart in the source and are kept apart here.

Tests used:
mouse [1] = settings: cited from earlier work
rat = settings: cited from earlier work
mouse [2] = settings: cited from earlier work; remark: listed apart in the source
B. subtilis = experiment: Minimal inhibitory concentration (MIC), B. subtilis; type: cell-based; settings: Bacillus subtilis; 0.1 M NaH2PO4, pH 7.0
S. aureus = experiment: microbe, parasite or virus in culture; type: cell-based; settings: Staphylococcus aureus, pH 7, read-out: Minimal inhibitory concentration (MIC), S. aureus
S. typhimirum = experiment: Minimal inhibitory concentration (MIC), S. typhimirum; type: cell-based; settings: 0.1 M NaH2PO4, pH 7.0
P. aeruginosa = experiment: Minimal inhibitory concentration (MIC), P. aeruginosa; type: cell-based; settings: Pseudomonas aeruginosa; 0.1 M NaH2PO4, pH 7.0
S. pyogenes = experiment: Minimal inhibitory concentration (MIC), S. pyogenes; type: cell-based; settings: Streptococcus pyogenes; 0.1 M NaH2PO4, pH 7.0
[3] = Saturated solubility (footnote of MIC table); type: physicochemical; settings: 0.1 M NaH2PO4, pH 7.0; footnote b; read-out: Approximately the saturated solubility
Text: ^b Approximately the saturated solubility.

in vivo [4] = settings: mouse, po
White Male Mice MCR-ICR = settings: oral; for Mortality 24 hrs. / Mortality 7 days: deaths of 10 animals per dose
in vivo [5] = settings: mouse, iv
[6] = tested on: MCR-ICR White Swiss Male Mice; settings: mouse; for Mortality 24 hrs. / Mortality 7 days: in vivo

## CCCCCCCCCCCCCCCC[n+]1ccccc1 [Compound 1, cetylpyridinium chloride]
Mouse [1]
  LD50 IP: 10 mg/kg
rat
  LD50 IV: 30 mg/kg
Mouse [2]
  LD50 oral: 108 mg/kg

## CCCCCCCC(=O)OC[n+]1ccccc1 [Compound 2, n-Octanoyloxymethylpyridinium chloride]
B. subtilis
  MIC: 529 µg/mL
S. aureus
  MIC: 529 µg/mL
S. typhimirum
  MIC: 1060 µg/mL
P. aeruginosa
  MIC: 1060 µg/mL
S. pyogenes
  MIC: 529 µg/mL

## CCCCCCCCCCCC(=O)OC[n+]1ccccc1 [Compound 3, n-Dodecanoyloxymethylpyridinium chloride]
B. subtilis
  MIC: 143 µg/mL
S. aureus
  MIC: 8.9 µg/mL
S. typhimirum
  MIC: 35.8 µg/mL
P. aeruginosa
  MIC: < 2.2 µg/mL
S. pyogenes
  MIC: 71.5 µg/mL

## CCCCCCCCCCCCCC(=O)OC[n+]1ccccc1 [Compound 4, n-Tetradecanoyloxymethylpyridinium chloride]
B. subtilis
  MIC: 8.3 µg/mL
S. aureus
  MIC: 8.1 µg/mL
S. typhimirum
  MIC: 133 µg/mL
P. aeruginosa
  MIC: > 1060 µg/mL
S. pyogenes
  MIC: 4.2 µg/mL

## CCCCCCCCCCCCCCCC(=O)OC[n+]1ccccc1 [Compound 5, n-Hexadecanoyloxymethylpyridinium chloride]
B. subtilis
  MIC: 1070 µg/mL
S. aureus
  MIC: 16.7 µg/mL
S. typhimirum
  MIC: 1070 µg/mL
P. aeruginosa
  MIC: 1070 µg/mL
S. pyogenes
  MIC: 268 µg/mL

## CCCCCCCCCCCC(=O)OC[n+]1ccn(C)c1 [Compound 6]
B. subtilis
  MIC: 16.3 µg/mL
S. aureus
  MIC: 4.1 µg/mL
S. typhimirum
  MIC: 65.3 µg/mL
P. aeruginosa
  MIC: 261 µg/mL
S. pyogenes
  MIC: 2 µg/mL

## CCCCCCCCCCCCCC(=O)OC[n+]1ccn(C)c1 [Compound 7]
B. subtilis
  MIC: 4.4 µg/mL
S. aureus
  MIC: < 2.2 µg/mL
S. typhimirum
  MIC: 69.7 µg/mL
P. aeruginosa
  MIC: > 1120 µg/mL
S. pyogenes
  MIC: > 2.2 µg/mL

## CCCCCCCCCCCCCCCC(=O)OC[n+]1ccn(C)c1 [Compound 8]
B. subtilis
  MIC: > 42.4 µg/mL
[3]
  solubility: ~42.4 µg/mL
S. aureus
  MIC: 1.3 µg/mL
S. typhimirum
  MIC: > 42.4 µg/mL
P. aeruginosa
  MIC: > 42.4 µg/mL
S. pyogenes
  MIC: > 42.4 µg/mL

## CCCCCCCCCCCC(=O)OC[n+]1ccn(C)c1 [IRx-1229]
In vivo [4]
  LD50 at 24 h: 4300 mg/kg
  LD50 at 168 h: 4110 mg/kg
White Male Mice MCR-ICR; 1.68 g/kg
  Deaths per day, Day 1: 0
  Deaths per day, Day 2: 1
  Mortality 24 hrs.: 0
  Mortality 7 days: 1
White Male Mice MCR-ICR; 3.35 g/kg
  Deaths per day, Day 1: 2
  Deaths per day, Day 3: 1
  Mortality 24 hrs.: 2
  Mortality 7 days: 3
White Male Mice MCR-ICR; 5.00 g/kg
  Deaths per day, Day 1: 7
  Mortality 24 hrs.: 7
  Mortality 7 days: 7
In vivo [5]
  LD50 at 24 h: 100 to 133 mg/kg
[6]; IV
  Symptoms: time of death: Death either occurred immediately after injection or several day later, never between 5 minutes and 24 hours after injection
[6]; IV, death immediately following injection
  Symptoms: cause and signs of immediate death: circulatory collapse because of too large an injection or precipitation of the compound in the bloodstream; also recorded: death was preceded by convulsions
[6]; 133 mg/kg
  Mortality 24 hrs.: 1/3
  Mortality 7 days: 1/3
[6]; iv, 35.09 mg/kg
  Mortality 24 hrs.: 0/5
  Mortality 7 days: 0/5
[6]; iv, 42.5 mg/kg
  Mortality 24 hrs.: 0/5
  Mortality 7 days: 0/5
[6]; iv, 81.25 mg/kg
  Mortality 24 hrs.: 1/2
  Mortality 7 days: 1/2
[6]; iv, 87.73 mg/kg
  Mortality 24 hrs.: 2/4
  Mortality 7 days: 2/4
[6]; iv, 102.47 mg/kg
  Mortality 24 hrs.: 0/8
  Mortality 7 days: 1/8
[6]; iv, 199.5 mg/kg
  Mortality 24 hrs.: 1/1
  Mortality 7 days: 1/1
